# Measured values as given in publication PMC6412401 (Molecules, 2019).
# Entries after “also recorded” stand apart in the source; their conditions may differ.
# What was measured:
# Type in all cases: biochemical
# recombinant human MAO-A = molecular target: T1, recombinant human MAO-A (Homo sapiens, UniProt P21397); assay: MAO-A inhibition assay (kynuramine oxidative deamination); settings: kynuramine 80 μM; mean ± S.D. of at least triplicate observations
# T1 construct: purchased BD Biosciences (Bedford, MA, USA)
# T1 sequence (P21397 1-527): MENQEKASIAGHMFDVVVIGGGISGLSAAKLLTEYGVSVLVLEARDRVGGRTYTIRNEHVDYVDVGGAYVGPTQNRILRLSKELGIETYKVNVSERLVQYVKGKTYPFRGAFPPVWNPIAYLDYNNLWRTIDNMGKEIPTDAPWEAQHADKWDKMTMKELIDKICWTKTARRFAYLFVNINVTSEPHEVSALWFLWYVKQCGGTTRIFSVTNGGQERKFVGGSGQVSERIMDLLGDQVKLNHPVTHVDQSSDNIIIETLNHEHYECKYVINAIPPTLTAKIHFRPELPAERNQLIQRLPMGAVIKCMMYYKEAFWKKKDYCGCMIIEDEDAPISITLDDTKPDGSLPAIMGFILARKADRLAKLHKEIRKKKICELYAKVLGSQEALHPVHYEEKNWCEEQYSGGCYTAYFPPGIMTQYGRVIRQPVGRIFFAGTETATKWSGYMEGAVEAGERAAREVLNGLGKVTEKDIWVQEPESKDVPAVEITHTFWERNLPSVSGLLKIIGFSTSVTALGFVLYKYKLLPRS
# Protocol: (§1) To investigate the effect of the isolated constituents from T. diffusa on recombinant human MAO-A and MAO-B, the kynuramine oxidative deamination assay was performed in 384-well plates, as previously reported, with minor modifications. A single fixed concentration of kynuramine substrate and varying concentrations of inhibitor were used to test enzyme inhibition and determine the IC50 values. Kynuramine concentrations for MAO-A and MAO-B were 80 μM and 50 μM, respectively. These concentrations of kynuramine were twice the apparent KM value for substrate binding. The concentrations that were tested for pure constituents were from 0.01 to 100 μM, for MAO-A and MAO-B inhibition assays. Reactions were performed in a clear 384-well microplate (50 μL) with 0.1 M potassium phosphate buffer, pH 7.4. The inhibitors and compounds were dissolved in DMSO, diluted in the buffer solution, and pre-incubated at 37 °C for 10 min (no more than 1.0% DMSO final concentration). […] The enzyme product 4-hydroxyquinoline formation was recorded fluorometrically using a SpectraMax M5 fluorescence plate reader (Molecular Devices, Sunnyvale, CA, USA) with an excitation (320 nm) and emission (380 nm) wavelength, using the SoftMaxPro 6.0 program. The inhibition effects of enzyme activity were calculated as a percent of product formation when compared to the corresponding control (enzyme-substrate reaction) without inhibitors. Controls, including samples in which the enzyme or the substrate was added after stopping the reactions, were simultaneously checked to determine the interference of inherent fluorescence of the test compounds with the measurements. IC50 values for MAO-A and MAO-B inhibition were calculated from the concentration dependent inhibition curves using XLfit, a Microsoft Excel-based plug-in which performs Regression, curve fitting and statistical analysis (IDBS, Bridgewater, NJ, USA).
# (§2) The dose-response curves were generated using Microsoft® Excel and the IC50 values were analyzed using XLfit software.
# recombinant human MAO-B [1] = molecular target: T2, recombinant human MAO-B (Homo sapiens, UniProt P27338); assay: MAO-B inhibition assay (kynuramine oxidative deamination); settings: for SI MAO-A/-B: Selectivity Index = IC50 MAO-A/IC50 MAO-B; for IC50: kynuramine 50 μM, mean ± S.D. of at least triplicate observations
# T2 construct: purchased BD Biosciences (Bedford, MA, USA)
# T2 sequence (P27338 1-520): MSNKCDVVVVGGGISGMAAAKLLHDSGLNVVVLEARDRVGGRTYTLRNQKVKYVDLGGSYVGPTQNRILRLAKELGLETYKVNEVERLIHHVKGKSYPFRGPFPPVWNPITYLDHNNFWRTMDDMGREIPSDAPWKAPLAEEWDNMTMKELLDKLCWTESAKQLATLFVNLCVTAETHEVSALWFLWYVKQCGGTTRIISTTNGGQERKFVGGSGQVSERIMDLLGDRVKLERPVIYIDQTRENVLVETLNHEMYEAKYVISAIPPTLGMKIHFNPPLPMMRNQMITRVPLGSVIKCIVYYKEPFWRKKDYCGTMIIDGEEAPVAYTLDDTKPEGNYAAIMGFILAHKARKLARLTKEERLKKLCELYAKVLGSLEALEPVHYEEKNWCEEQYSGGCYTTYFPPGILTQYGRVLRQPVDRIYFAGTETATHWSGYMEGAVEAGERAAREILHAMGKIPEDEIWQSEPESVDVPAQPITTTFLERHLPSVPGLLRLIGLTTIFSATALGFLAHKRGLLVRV
# Protocol: as §1, §2
# recombinant human MAO-B [2] = molecular target: T2, recombinant human MAO-B; assay: Enzyme kinetics and mechanism studies (Lineweaver-Burk); settings: for Type of Inhibition Monoamine Oxidase-B: mechanism / reversibility
# Protocol: The assays were run at varying concentrations of the substrate and fixed concentrations of the inhibitor. The Ki (i.e., inhibition/binding affinity) values were computed with double reciprocal Lineweaver–Burk plots.
# The controls without inhibitor were also simultaneously run. The results were analyzed by standard double reciprocal Line–Weaver Burk plots for computing Km and Vmax values, which were further analyzed to determine Ki values.
# recombinant human MAO-B [3] = molecular target: T2, recombinant human MAO-B; assay: Reversibility of binding, enzyme-inhibitor complex equilibrium dialysis
# Protocol: The activity of the enzyme was analyzed before and after the dialysis (Figure 4).
# The inhibitors bind with the target enzyme through the formation of an enzyme-inhibitor complex. The formation of the enzyme-inhibitor complex may be accelerated in the presence of the high concentration of the inhibitor. […] After 20 min incubation at 37 °C, the reaction was stopped by chilling in an ice bath. All of the samples were dialyzed against potassium phosphate buffer (25 mM; pH 7.4) at 4 °C for 14–18 h (three buffer changes). Control enzyme (without inhibitor) was also run through the same procedure and the activity of the enzyme was determined before and after the dialysis.
# recombinant human MAO-B [4] = molecular target: T2, recombinant human MAO-B; assay: Time-dependent assay for enzyme inhibition; settings: 0.500 μM; pre-incubation 0–15 min
# Protocol: The control without inhibitors was also run simultaneously. The activity of the enzyme was determined, as described above, and the percentage of enzyme activity remaining was plotted against the pre-incubation time to determine the time-dependence of inhibition.
# The controls without inhibitors were also simultaneously run. The activities of the enzymes were determined, as described above, and the percentage of enzyme activity remaining was plotted against the pre-incubation time to determine the time-dependence of inhibition.
IC50 (recombinant human MAO-A),selectivity for MAO-B over MAO-A (recombinant human MAO-B [1]),SI MAO-A/-B (recombinant human MAO-B [1]),"plateau of concentration-dependent inhibition of MAO-B (recombinant human MAO-B [1]; higher concentrations, ~20% activity remaining)",IC50 (recombinant human MAO-B [1]),Type of Inhibition Monoamine Oxidase-B (recombinant human MAO-B [2]),Type of Inhibition Monoamine Oxidase-B (recombinant human MAO-B [2]; listed as acacetin 7-methyl ether),"Ki (recombinant human MAO-B [2]; varying kynuramine, mean ± S.D. of triplicate experiments, read-out: Ki Monoamine Oxidase-B)","inhibition of MAO-B activity after incubation, before dialysis (recombinant human MAO-B [3]; 1.0 and 2.0 μM, 20 min incubation)","activity of the enzyme recovered after equilibrium dialysis (recombinant human MAO-B [3]; 1.0 and 2.0 μM, dialyzed overnight)",reversibility of binding to MAO-B (recombinant human MAO-B [3]; equilibrium dialysis),Structure (SMILES),time dependence of binding/inhibition of MAO-B (recombinant human MAO-B [4])
> 100 µM,> 500 fold,>505.051,~ 80 % inhibition,0.198 ± 0.001 µM,Competitive/Partially Reversible,reversible competitive inhibitor,0.045 ± 0.003 µM,> 60%,~ 80%,partially reversible,"COc1ccc(-c2cc(=O)c3c(O)cc(OC)cc3o2)cc1 [Acacetin 7-methyl ether, 5-hydroxy-4′, 7-dimethoxyflavone]",time-independent; also recorded: not dependent on the pre-incubation time
0.115 ± 0.004 µM,–,–,–,–,Competitive/Reversible,–,–,–,–,–,COc1ccc(-c2cc(=O)c3c(O)cc(O)cc3o2)cc1 [Acacetin],–

# More lines, now with the values behind:
Structure (SMILES),IC50 (recombinant human MAO-A),selectivity for MAO-B over MAO-A (recombinant human MAO-B [1]),SI MAO-A/-B (recombinant human MAO-B [1]),"plateau of concentration-dependent inhibition of MAO-B (recombinant human MAO-B [1]; higher concentrations, ~20% activity remaining)",IC50 (recombinant human MAO-B [1]),Type of Inhibition Monoamine Oxidase-B (recombinant human MAO-B [2]),Type of Inhibition Monoamine Oxidase-B (recombinant human MAO-B [2]; listed as acacetin 7-methyl ether),"Ki (recombinant human MAO-B [2]; varying kynuramine, mean ± S.D. of triplicate experiments, read-out: Ki Monoamine Oxidase-B)","inhibition of MAO-B activity after incubation, before dialysis (recombinant human MAO-B [3]; 1.0 and 2.0 μM, 20 min incubation)","activity of the enzyme recovered after equilibrium dialysis (recombinant human MAO-B [3]; 1.0 and 2.0 μM, dialyzed overnight)",reversibility of binding to MAO-B (recombinant human MAO-B [3]; equilibrium dialysis),time dependence of binding/inhibition of MAO-B (recombinant human MAO-B [4])
O=C(/C=C/c1ccc(O)cc1)OC[C@H]1O[C@@H](Oc2cc(O)c3c(=O)cc(-c4ccc(O)cc4)oc3c2)[C@H](O)[C@@H](O)[C@@H]1O [Apigenin-7-O-β-D-(6-O-p-coumaroyl) glucoside],22.5 ± 4.44 µM,–,1.023,–,22 ± 1.76 µM,–,–,–,–,–,–,–
C[C@@H]1O[C@@H](O[C@@H]2[C@@H](O)[C@H](O)[C@@H](CO)O[C@H]2c2c(O)cc(O)c3c(=O)cc(-c4ccc(O)cc4)oc23)[C@H](O)[C@H](O)[C@H]1O [Rhamnosylvitexin],40.9 ± 6.81 µM,–,1.557,–,26.3 ± 0.277 µM,–,–,–,–,–,–,–
COc1cc(-c2cc(=O)c3c(O)cc(O[C@@H]4O[C@H](CO)[C@@H](O)[C@H](O)[C@H]4O)cc3o2)cc(OC)c1O [Tricin-7-glucoside],50.9 ± 0.506 µM,–,1.854,–,27.4 ± 0.819 µM,–,–,–,–,–,–,–
COc1cc(O)c2c(=O)cc(-c3ccc(O)c(OC)c3)oc2c1 [Vetulin],18.8 ± 0.291 µM,–,42.056,–,0.447 ± 0.01 µM,–,–,–,–,–,–,–
